Here are results for one compound from BindingDB's records for doi:10.1016/j.ejmech.2020.112373 (Newlink Genetics, 2020).

Assay [1] concerns the target Solute carrier family 22 member 2, OCT2 (Homo sapiens) (UniProt O15244). The experiment in a line: Inhibition of OCT2 (unknown origin) expressed in HEK293 cells.
In assay [2] the target is Solute carrier family 22 member 1, OCT1 (Homo sapiens) (UniProt O15245). In words: Inhibition of OCT1 (unknown origin) expressed in HEK293 cells.
Sequence of Solute carrier family 22 member 1, OCT1 (Homo sapiens) (O15245 whole entry, looked up): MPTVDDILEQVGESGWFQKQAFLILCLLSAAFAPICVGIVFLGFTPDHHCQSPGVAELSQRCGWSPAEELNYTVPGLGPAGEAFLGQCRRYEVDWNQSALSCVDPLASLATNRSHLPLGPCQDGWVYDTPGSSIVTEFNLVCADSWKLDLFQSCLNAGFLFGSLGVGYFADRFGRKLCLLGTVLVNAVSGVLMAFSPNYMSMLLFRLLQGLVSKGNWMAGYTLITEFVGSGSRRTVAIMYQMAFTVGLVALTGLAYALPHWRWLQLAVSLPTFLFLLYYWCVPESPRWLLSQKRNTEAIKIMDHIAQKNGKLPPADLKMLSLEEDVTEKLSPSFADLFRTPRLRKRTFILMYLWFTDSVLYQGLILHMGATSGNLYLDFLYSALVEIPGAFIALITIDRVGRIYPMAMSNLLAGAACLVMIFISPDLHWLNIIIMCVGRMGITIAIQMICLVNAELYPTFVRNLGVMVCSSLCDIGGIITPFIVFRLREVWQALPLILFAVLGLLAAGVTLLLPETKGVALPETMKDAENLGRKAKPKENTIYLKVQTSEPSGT

Sequence of Solute carrier family 22 member 2, OCT2 (Homo sapiens) (O15244 whole entry, looked up): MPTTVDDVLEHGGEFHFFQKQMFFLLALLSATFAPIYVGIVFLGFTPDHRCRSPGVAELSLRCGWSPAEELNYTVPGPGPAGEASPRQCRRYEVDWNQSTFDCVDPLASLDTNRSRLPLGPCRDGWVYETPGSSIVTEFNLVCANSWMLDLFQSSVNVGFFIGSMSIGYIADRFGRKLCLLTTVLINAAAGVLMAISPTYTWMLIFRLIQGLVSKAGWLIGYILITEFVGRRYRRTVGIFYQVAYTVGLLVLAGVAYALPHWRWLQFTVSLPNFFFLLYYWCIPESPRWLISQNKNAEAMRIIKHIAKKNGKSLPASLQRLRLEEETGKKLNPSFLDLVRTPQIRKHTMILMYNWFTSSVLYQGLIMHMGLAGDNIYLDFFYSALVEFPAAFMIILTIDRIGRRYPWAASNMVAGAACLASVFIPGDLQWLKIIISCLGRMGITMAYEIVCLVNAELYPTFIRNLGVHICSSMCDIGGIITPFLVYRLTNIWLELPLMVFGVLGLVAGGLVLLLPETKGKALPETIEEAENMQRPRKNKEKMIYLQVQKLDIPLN

With `CCOC(=O)[C@@H](Cc1cn(C)c2ccccc12)NC(=O)[C@@H](N)CC(C)C`, the IC50 in assay [1] and in assay [2] was greater than 50 µM in each case.

In general, IC50 refers to the concentration at which inhibition is half-maximal.
